Data: patent US9290451B2 (Hoffmann-La Roche Inc., priority 2011, dated 2016)

Key:
human CB1 receptors = human CB1 receptors (Homo sapiens (Human), UniProt P21554); assay: cAMP assay, CHO cells expressing human CB1 receptors; assay type: cell-based; conditions: CHO cells expressing human CB1, cAMP; read-out: human CB1 EC50
Experimental: (§1) CHO cells expressing human CB1 or CB2 receptors are seeded 17-24 hours prior to the experiment 50.000 cells per well in a black 96 well plate with flat clear bottom (Corning Costar #3904) in DMEM (Invitrogen No. 31331), 1×HT supplement, with 10% fetal calf serum and incubated at 5% CO2 and 37° C. in a humidified incubator. The growth medium was exchanged with Krebs Ringer Bicarbonate buffer with 1 mM IBMX and incubated at 30° C. for 30 min Compounds were added to a final assay volume of 100 μl and incubated for 30 min at 30° C. Using the cAMP-Nano-TRF detection kit the assay (Roche Diagnostics) was stopped by the addition of 50 μl lysis reagent (Tris, NaCl, 1.5% Triton X100, 2.5% NP40, 10% NaN3) and 50 μl detection solutions (20 μM mAb Alexa700-cAMP 1:1, and 48 μM Ruthenium-2-AHA-cAMP) and shaken for 2 h at room temperature. The time-resolved energy transfer is measured by a TRF reader (Evotec Technologies GmbH), equipped with a ND:YAG laser as excitation source. The plate is measured twice with the excitation at 355 nm and at the emission with a delay of 100 ns and a gate of 100 ns, total exposure time 10 s at 730 (bandwidth 30 nm) or 645 nm (bandwidth 75 nm), respectively. The FRET signal is calculated as follows: FRET=T730-Alexa730-P(T645-B645) with P═Ru730-B730/Ru645-B645, where T730 is the test well measured at […], T645 is the test well measured at 645 nm, B730 and B645 are the buffer controls at 730 nm and 645 nm, respectively. cAMP content is determined from the function of a standard curve spanning from 10 μM to 0.13 nM cAMP.
(§2) EC50 values were determined using Activity Base analysis (ID Business Solution, Limited). The EC50 values for a wide range of cannabinoid agonists generated from this assay for reference compounds were in agreement with the values published in the scientific literature.

human CB2 receptors = human CB2 receptors (Homo sapiens (Human), UniProt P34972); assay: cAMP assay, CHO cells expressing human CB2 receptors; assay type: cell-based; conditions: CHO cells expressing human CB2, cAMP; read-out: human CB2 EC50
human CB2 receptors, sequence (P34972 whole entry): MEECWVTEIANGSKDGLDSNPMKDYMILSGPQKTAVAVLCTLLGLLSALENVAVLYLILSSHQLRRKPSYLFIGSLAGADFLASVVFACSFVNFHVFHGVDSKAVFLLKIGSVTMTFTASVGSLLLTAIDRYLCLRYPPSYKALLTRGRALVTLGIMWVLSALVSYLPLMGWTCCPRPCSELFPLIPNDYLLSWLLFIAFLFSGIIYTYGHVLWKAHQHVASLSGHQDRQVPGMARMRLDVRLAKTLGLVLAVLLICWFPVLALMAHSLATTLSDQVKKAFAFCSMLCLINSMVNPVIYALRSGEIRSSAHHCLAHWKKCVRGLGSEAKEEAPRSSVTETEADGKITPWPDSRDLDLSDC
Experimental: as §1, §2

human CB1 receptors, sequence (P21554 whole entry): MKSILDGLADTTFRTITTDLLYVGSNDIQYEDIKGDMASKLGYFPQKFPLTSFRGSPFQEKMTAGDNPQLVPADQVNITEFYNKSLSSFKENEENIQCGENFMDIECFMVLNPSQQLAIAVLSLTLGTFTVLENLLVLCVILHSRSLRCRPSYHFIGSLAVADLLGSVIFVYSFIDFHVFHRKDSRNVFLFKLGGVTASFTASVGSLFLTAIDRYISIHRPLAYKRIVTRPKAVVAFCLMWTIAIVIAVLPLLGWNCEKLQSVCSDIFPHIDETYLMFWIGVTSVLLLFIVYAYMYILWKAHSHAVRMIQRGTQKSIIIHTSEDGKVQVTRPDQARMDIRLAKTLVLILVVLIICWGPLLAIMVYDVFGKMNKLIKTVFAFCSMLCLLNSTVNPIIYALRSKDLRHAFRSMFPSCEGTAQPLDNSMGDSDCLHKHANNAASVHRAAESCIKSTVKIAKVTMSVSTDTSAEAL

Q: With CC(C)C[C@H](NC(=O)c1ccc(N2CC(F)(F)C2)c(OCC2CC2)n1)c1cccnn1 [Example 355, 6-Cyclopropylmethoxy-5-(3,3-difluoro-azetidin-1-yl)-pyridine-2-carboxylic acid ((S)-3-methyl-1-pyridazin-3-yl-butyl)-amide] as the compound, how does the EC50 (human CB1 receptors) read?
A: > 10000 nM

Q: What about the EC50 (human CB2 receptors) of the same compound?
A: 80.1 nM

Q: With O=C(NC(c1ccccn1)C(F)(F)F)c1ccc(N2CC(F)(F)C2)c(OCC2CC2)n1 (stereo not drawn) [Example 224, 6-Cyclopropylmethoxy-5-(3,3-difluoro-azetidin-1-yl)-pyridine-2-carboxylic acid (2,2,2-trifluoro-1-pyridin-2-yl-ethyl)-amide] as the compound, how does the EC50 (human CB1 receptors) read?
A: 648 nM

Q: And the EC50 (human CB2 receptors)?
A: 22.2 nM

Q: For CCOC(=O)C(CC)(CC)NC(=O)c1ccc(N2CC(F)(F)C2)c(OCC2CC2)n1 [Example 266, 2-{[6-Cyclopropylmethoxy-5-(3,3-difluoro-azetidin-1-yl)-pyridine-2-carbonyl]-amino}-2-ethyl-butyric acid ethyl ester], which EC50 (human CB1 receptors) is on record?
A: 1300 nM

Q: And the EC50 (human CB2 receptors)?
A: 2 nM

Q: How did the EC50 (human CB1 receptors) turn out when CN(C)C(=O)[C@H](CC1CC1)NC(=O)c1ccc(N2CC(F)(F)C2)c(OCC2CC2)n1 [Example 256, 6-Cyclopropylmethoxy-5-(3,3-difluoro-azetidin-1-yl)-pyridine-2-carboxylic acid ((S)-2-cyclopropyl-1-dimethylcarbamoyl-ethyl)-amide] was run?
A: > 10000 nM

Q: What about the EC50 (human CB2 receptors) of the same compound?
A: 9.3 nM

Q: What does the source list for O=C(NC1CCCCC1)c1cccc(-c2cccc(Cl)c2)n1 [Example 18, 6-(3-Chloro-phenyl)-pyridine-2-carboxylic acid cyclohexylamide]?
A: EC50 (human CB1 receptors): > 10000 nM; EC50 (human CB2 receptors): 97 nM

Q: How did the EC50 (human CB1 receptors) turn out when Cc1nc(C(NC(=O)c2ccc(N3CCC34COC4)c(OCC3CC3)n2)C2CC2)no1 (stereo not drawn) [Example 236, 6-Cyclopropylmethoxy-5-(6-oxa-1-aza-spiro[3.3]hept-1-yl)-pyridine-2-carboxylic acid [cyclopropyl-(5-methyl-[1,2,4]oxadiazol-3-yl)-methyl]-amide] was run?
A: > 10000 nM

Q: What about the EC50 (human CB2 receptors) of the same compound?
A: 36.5 nM

Q: Which EC50 (human CB1 receptors) does the source give for CC(C)C(C)(NC(=O)c1ccc(C2CC2)c(OCC2CC2)n1)C(N)=O (stereo not drawn) [Example 169, N-(1-Amino-2,3-dimethyl-1-oxobutan-2-yl)-5-cyclopropyl-6-(cyclopropylmethoxy)picolinamide] here?
A: > 10000 nM

Q: And the EC50 (human CB2 receptors)?
A: 182 nM

Q: For NC(=O)[C@@H](NC(=O)c1ccc(C2CC2)c(OCC2CC2)n1)c1ccc(F)cc1 [Example 328, 5-Cyclopropyl-6-cyclopropylmethoxy-pyridine-2-carboxylic acid [(S)-carbamoyl-(4-fluoro-phenyl)-methyl]-amide], which EC50 (human CB1 receptors) is on record?
A: > 10000 nM

Q: And the EC50 (human CB2 receptors)?
A: 3.9 nM

Q: What does the source list for CNC(=O)C(C)(C)NC(=O)c1ccc(N2CCC(F)(F)C2)c(OCC2CC2)n1 [Example 80, 6-Cyclopropylmethoxy-5-(3,3-difluoro-pyrrolidin-1-yl)-pyridine-2-carboxylic acid (1-methyl-1-methylcarbamoyl-ethyl)-amide]?
A: EC50 (human CB1 receptors): 5.8 nM; EC50 (human CB2 receptors): 134 nM

Q: How did the EC50 (human CB1 receptors) turn out when O=C(c1ccc(N2CCCC2)c(OCC2CC2)n1)N1CC2(COC2)C1 [Example 31, (6-Cyclopropylmethoxy-5-pyrrolidin-1-yl-pyridin-2-yl)-(2-oxa-6-aza-spiro[3.3]hept-6-yl)-methanone] was run?
A: > 10000 nM

Q: And the EC50 (human CB2 receptors)?
A: 423 nM

Q: Which results are given for NC(=O)[C@H](NC(=O)c1ccc(C2CC2)c(OCC2CC2)n1)C1CC1 [Example 375, 5-Cyclopropyl-6-cyclopropylmethoxy-pyridine-2-carboxylic acid ((−)-carbamoyl-cyclopropyl-methyl)-amide]?
A: EC50 (human CB1 receptors): > 10000 nM; EC50 (human CB2 receptors): 358 nM

Q: How did the EC50 (human CB1 receptors) turn out when Cc1nc([C@@](C)(NC(=O)c2ccc(C3CC3)c(OCC3CC3)n2)C2CC2)no1 [Example 323, 5-Cyclopropyl-6-cyclopropylmethoxy-pyridine-2-carboxylic acid [(+)-1-cyclopropyl-1-(5-methyl-[1,2,4]oxadiazol-3-yl)-ethyl]-amide] was run?
A: 181 nM

Q: And the EC50 (human CB2 receptors)?
A: 0.9 nM

Q: How did the EC50 (human CB1 receptors) turn out when NC(=O)[C@@H](NC(=O)c1ccc(N2CC(F)(F)C2)c(OCC2CC2)n1)C1CC1 [Example 376, 6-Cyclopropylmethoxy-5-(3,3-difluoro-azetidin-1-yl)-pyridine-2-carboxylic acid ((+)-carbamoyl-cyclopropyl-methyl)-amide] was run?
A: > 10000 nM

Q: And the EC50 (human CB2 receptors)?
A: 59.5 nM

Q: What does the source list for CC(C)(NC(=O)c1ccc(C2CC2)c(-c2cccc(Cl)c2)n1)c1ncco1 [Example 95, 6-(3-Chloro-phenyl)-5-cyclopropyl-pyridine-2-carboxylic acid (1-methyl-1-oxazol-2-yl-ethyl)-amide]?
A: EC50 (human CB1 receptors): > 10000 nM; EC50 (human CB2 receptors): 83.9 nM

Q: CCC(CC)(NC(=O)c1ccc(C2CC2)c(OCC2CCCO2)n1)C(=O)OC (stereo not drawn) [Example 233, 2-{[5-Cyclopropyl-6-(tetrahydro-furan-2-ylmethoxy)-pyridine-2-carbonyl]-amino}-2-ethyl-butyric acid methyl ester] was tested. Which EC50 (human CB1 receptors) did it give?
A: 71 nM

Q: And the EC50 (human CB2 receptors)?
A: 0.1 nM

Q: Which results are given for CNC(=O)C(C)(C)NC(=O)c1ccc(C2CCCC2)c(OCC2CC2)n1 [Example 40, 5-Cyclopentyl-6-cyclopropylmethoxy-pyridine-2-carboxylic acid (1-methyl-1-methylcarbamoyl-ethyl)-amide]?
A: EC50 (human CB1 receptors): > 10000 nM; EC50 (human CB2 receptors): 30.8 nM

Q: How did the EC50 (human CB1 receptors) turn out when O=C(N[C@H](c1cccnc1)C(F)(F)F)c1ccc(N2CC(F)(F)C2)c(OCC2CC2)n1 [Example 237, 6-Cyclopropylmethoxy-5-(3,3-difluoro-azetidin-1-yl)-pyridine-2-carboxylic acid ((R)-2,2,2-trifluoro-1-pyridin-3-yl-ethyl)-amide] was run?
A: > 10000 nM

Q: And the EC50 (human CB2 receptors)?
A: 97.5 nM

Q: What does the source list for O=C(NC(c1ccccn1)C(F)(F)F)c1ccc(C2CC2)c(OCC(F)(F)F)n1 (stereo not drawn) [Example 302, 5-Cyclopropyl-6-(2,2,2-trifluoro-ethoxy)-pyridine-2-carboxylic acid (2,2,2-trifluoro-1-pyridin-2-yl-ethyl)-amide]?
A: EC50 (human CB1 receptors): > 10000 nM; EC50 (human CB2 receptors): 587 nM

Q: For O=C(NC1CCS(=O)(=O)C1)c1ccc(N2CC(F)(F)C2)c(OCC2CC2)n1 (stereo not drawn) [Example 292, 6-Cyclopropylmethoxy-5-(3,3-difluoro-azetidin-1-yl)-pyridine-2-carboxylic acid (1,1-dioxo-tetrahydro-1λ^6-thiophen-3-yl)-amide], which EC50 (human CB1 receptors) is on record?
A: > 10000 nM

Q: What about the EC50 (human CB2 receptors) of the same compound?
A: 874 nM

Q: CCC(CC)(NC(=O)c1ccc(N2CC(F)(F)C2=O)c(OCC2CC2)n1)C(=O)OC [Example 269, 2-{[6-Cyclopropylmethoxy-5-(3,3-difluoro-2-oxo-azetidin-1-yl)-pyridine-2-carbonyl]-amino}-2-ethyl-butyric acid methyl ester] was tested. Which EC50 (human CB1 receptors) did it give?
A: > 10000 nM

Q: What about the EC50 (human CB2 receptors) of the same compound?
A: 47.3 nM

Q: How did the EC50 (human CB1 receptors) turn out when O=C(c1ccc(N2CC(F)(F)C2)c(OCC2CC2)n1)N1CCC[C@H]1CO [Example 149, [6-Cyclopropylmethoxy-5-(3,3-difluoro-azetidin-1-yl)-pyridin-2-yl]-((S)-2-hydroxymethyl-pyrrolidin-1-yl)-methanone] was run?
A: > 10000 nM

Q: And the EC50 (human CB2 receptors)?
A: 174 nM

Q: With CCC(CC)(NC(=O)c1ccc(C2CC2)c(OCC(F)(F)C(F)(F)F)n1)C(=O)NC [Example 298, 5-Cyclopropyl-6-(2,2,3,3,3-pentafluoro-propoxy)-pyridine-2-carboxylic acid (1-ethyl-1-methylcarbamoyl-propyl)-amide] as the compound, how does the EC50 (human CB1 receptors) read?
A: > 10000 nM

Q: What about the EC50 (human CB2 receptors) of the same compound?
A: 14.2 nM

Q: Which results are given for CCC(CC)(NC(=O)c1ccc(N2CCC(F)(F)C2)c(OCC2CC2)n1)C(=O)NC [Example 78, 6-Cyclopropylmethoxy-5-(3,3-difluoro-pyrrolidin-1-yl)-pyridine-2-carboxylic acid (1-ethyl-1-methylcarbamoyl-propyl)-amide]?
A: EC50 (human CB1 receptors): > 10000 nM; EC50 (human CB2 receptors): 4.6 nM

Q: Which EC50 (human CB1 receptors) does the source give for Cc1nc([C@@H](CC(C)C)NC(=O)c2ccc(C3CC3)c(OCC3CC3)n2)no1 [Example 243, 5-Cyclopropyl-6-cyclopropylmethoxy-pyridine-2-carboxylic acid [(−)-3-methyl-1-(5-methyl-[1,2,4]oxadiazol-3-yl)-butyl]-amide] here?
A: 830 nM

Q: And the EC50 (human CB2 receptors)?
A: 22.1 nM

Q: For CC(C)(NC(=O)c1ccc(N2CC(F)(F)C2)c(-c2cccc(Cl)c2)n1)c1nccs1 [Example 156, 6-(3-Chloro-phenyl)-5-(3,3-difluoro-azetidin-1-yl)-pyridine-2-carboxylic acid (1-methyl-1-thiazol-2-yl-ethyl)-amide], which EC50 (human CB1 receptors) is on record?
A: > 10000 nM

Q: What about the EC50 (human CB2 receptors) of the same compound?
A: 334 nM

Q: How did the EC50 (human CB1 receptors) turn out when NC(=O)[C@H](CC1CC1)NC(=O)c1ccc(C2CCCC2)c(OCC2CC2)n1 [Example 107, 5-Cyclopentyl-6-cyclopropylmethoxy-pyridine-2-carboxylic acid ((S)-1-carbamoyl-2-cyclopropyl-ethyl)-amide] was run?
A: 1460 nM

Q: What about the EC50 (human CB2 receptors) of the same compound?
A: 10.7 nM

Q: Cc1nc([C@@H](C)NC(=O)c2ccc(C3CC3)c(OCC3CC3)n2)no1 [Example 241, 5-Cyclopropyl-6-cyclopropylmethoxy-pyridine-2-carboxylic acid [(−)-1-(5-methyl-[1,2,4]oxadiazol-3-yl)-ethyl]-amide] was tested. Which EC50 (human CB1 receptors) did it give?
A: > 10000 nM

Q: And the EC50 (human CB2 receptors)?
A: 49.1 nM
